Reference: ChEMBL document CHEMBL1122903, “Synthesis, in vitro [3H]prazosin displacement, and in vivo activity of 3-aryl-4,5,6,7-tetrahydropyrazolo[4,3-c]pyridines, a new class of antihypertensive agents” (J Med Chem, 1985)

Assays:
[1] = biological target: T1, Adrenergic receptor alpha-1 (Rattus norvegicus, UniProt P15823+P23944+P43140); test: Ability to displace [3H]prazosin from postsynaptic alpha-1 adrenergic receptor of rat in vitro.; type: protein assay
T1 sequence (P15823 whole entry): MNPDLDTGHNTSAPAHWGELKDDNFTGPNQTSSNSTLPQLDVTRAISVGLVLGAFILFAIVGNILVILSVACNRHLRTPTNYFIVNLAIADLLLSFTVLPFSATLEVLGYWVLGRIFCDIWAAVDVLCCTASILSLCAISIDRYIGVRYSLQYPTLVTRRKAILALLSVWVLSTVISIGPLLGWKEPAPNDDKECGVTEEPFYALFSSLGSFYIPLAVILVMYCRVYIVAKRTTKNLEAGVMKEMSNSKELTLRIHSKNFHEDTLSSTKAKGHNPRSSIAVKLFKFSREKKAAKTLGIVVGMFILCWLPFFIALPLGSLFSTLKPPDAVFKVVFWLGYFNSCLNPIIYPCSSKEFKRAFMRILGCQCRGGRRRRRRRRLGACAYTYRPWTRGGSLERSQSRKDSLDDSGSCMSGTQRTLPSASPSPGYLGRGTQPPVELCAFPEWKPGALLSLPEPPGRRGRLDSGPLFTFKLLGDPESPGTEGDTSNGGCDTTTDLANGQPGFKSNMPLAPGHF
T1 sequence (P23944 whole entry): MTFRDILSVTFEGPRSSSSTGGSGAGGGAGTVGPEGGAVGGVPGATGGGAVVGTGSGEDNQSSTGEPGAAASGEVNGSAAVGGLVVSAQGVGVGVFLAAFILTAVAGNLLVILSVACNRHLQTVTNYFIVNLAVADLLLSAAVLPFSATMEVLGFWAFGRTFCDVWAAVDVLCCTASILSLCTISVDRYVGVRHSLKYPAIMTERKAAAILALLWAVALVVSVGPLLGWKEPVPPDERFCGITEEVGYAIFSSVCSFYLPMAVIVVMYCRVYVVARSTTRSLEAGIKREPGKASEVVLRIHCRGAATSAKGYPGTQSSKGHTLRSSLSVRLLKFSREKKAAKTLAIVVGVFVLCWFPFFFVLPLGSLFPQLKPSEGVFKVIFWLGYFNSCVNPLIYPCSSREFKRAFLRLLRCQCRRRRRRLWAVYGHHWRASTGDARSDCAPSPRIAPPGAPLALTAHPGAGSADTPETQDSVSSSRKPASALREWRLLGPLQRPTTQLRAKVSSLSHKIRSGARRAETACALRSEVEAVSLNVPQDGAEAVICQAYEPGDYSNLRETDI
T1 sequence (P43140 whole entry): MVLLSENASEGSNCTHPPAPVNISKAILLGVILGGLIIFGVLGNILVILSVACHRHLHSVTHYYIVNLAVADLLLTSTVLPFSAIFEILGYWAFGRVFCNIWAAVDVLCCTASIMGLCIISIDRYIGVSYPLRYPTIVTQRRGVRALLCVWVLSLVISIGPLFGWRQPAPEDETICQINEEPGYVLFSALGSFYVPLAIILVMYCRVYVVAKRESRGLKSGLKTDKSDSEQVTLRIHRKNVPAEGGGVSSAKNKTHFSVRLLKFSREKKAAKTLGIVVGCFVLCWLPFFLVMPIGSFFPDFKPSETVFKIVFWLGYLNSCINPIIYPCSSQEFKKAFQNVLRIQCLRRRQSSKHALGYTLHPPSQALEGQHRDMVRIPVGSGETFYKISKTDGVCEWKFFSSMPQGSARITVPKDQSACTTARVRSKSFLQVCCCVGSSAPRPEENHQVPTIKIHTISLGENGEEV

Canis familiaris [2] = test: Heart rate after 6 hours of oral administration in renal hypertensive dogs at dose 1 mg/kg; type: functional, Canis lupus familiaris
Canis familiaris [3] = test: Heart rate after 6 hours of oral administration in renal hypertensive dogs at dose 2 mg/kg; type: functional, Canis lupus familiaris
Canis familiaris [4] = test: Heart rate after 8 hours of oral administration in renal hypertensive dogs at dose 0.25 mg/kg; type: functional, Canis lupus familiaris
Canis familiaris [5] = test: Heart rate after 8 hours of oral administration in renal hypertensive dogs at dose 2 mg/kg; type: functional, Canis lupus familiaris
Canis familiaris [6] = test: Peak effect after 8 hours on heart rate after 1 days of oral administration in renal hypertensive dogs at dose 0.5 mg/kg; type: functional, Canis lupus familiaris
Canis familiaris [7] = test: Peak effect after 8 hours on heart rate after 2 day of oral administration in renal hypertensive dogs at dose 0.5 mg/kg; type: functional, Canis lupus familiaris
Canis familiaris [8] = test: Peak effect after 8 hours on heart rate after 3 days of oral administration in renal hypertensive dogs at dose 0.5 mg/kg; type: functional, Canis lupus familiaris
Canis familiaris [9] = test: Peak effect after 8 hours on heart rate after 7 days of oral administration in renal hypertensive dogs at dose 0.5 mg/kg; type: functional, Canis lupus familiaris
Canis familiaris [10] = test: Heart rate after 0 hours of oral administration in renal hypertensive dogs at dose 2 mg/kg; type: functional, Canis lupus familiaris
Canis familiaris [11] = test: Heart rate after 2 hours of oral administration in renal hypertensive dogs at dose 0.25 mg/kg; type: functional, Canis lupus familiaris
Canis familiaris [12] = test: Heart rate after 0 hours of oral administration in renal hypertensive dogs at dose 0.25 mg/kg; type: functional, Canis lupus familiaris
Canis familiaris [13] = test: Heart rate after 0 hours of oral administration in renal hypertensive dogs at dose 1 mg/kg; type: functional, Canis lupus familiaris
Canis familiaris [14] = test: Systolic blood pressure after 6 hours of oral administration in renal hypertensive dogs at dose 1 mg/kg; type: functional, Canis lupus familiaris
Canis familiaris [15] = test: Systolic blood pressure after 6 hours of oral administration in renal hypertensive dogs at dose 2 mg/kg; type: functional, Canis lupus familiaris
Canis familiaris [16] = test: Systolic blood pressure after 8 hours of oral administration in renal hypertensive dogs at dose 0.25 mg/kg; type: functional, Canis lupus familiaris
Canis familiaris [17] = test: Systolic blood pressure after 8 hours of oral administration in renal hypertensive dogs at dose 1 mg/kg; type: functional, Canis lupus familiaris
Canis familiaris [18] = test: Systolic blood pressure after 8 hours of oral administration in renal hypertensive dogs at dose 2 mg/kg; type: functional, Canis lupus familiaris
Canis familiaris [19] = test: Heart rate after 6 hours of oral administration in renal hypertensive dogs at dose 0.25 mg/kg; type: functional, Canis lupus familiaris
Canis familiaris [20] = test: Heart rate after 2 hours of oral administration in renal hypertensive dogs at dose 1 mg/kg; type: functional, Canis lupus familiaris
Canis familiaris [21] = test: Heart rate after 2 hours of oral administration in renal hypertensive dogs at dose 2 mg/kg; type: functional, Canis lupus familiaris
Canis familiaris [22] = test: Heart rate after 4 hours of oral administration in renal hypertensive dogs at dose 0.25 mg/kg; type: functional, Canis lupus familiaris
Canis familiaris [23] = test: Heart rate after 4 hours of oral administration in renal hypertensive dogs at dose 1 mg/kg; type: functional, Canis lupus familiaris
Canis familiaris [24] = test: Heart rate after 4 hours of oral administration in renal hypertensive dogs at dose 2 mg/kg; type: functional, Canis lupus familiaris
Canis familiaris [25] = test: Peak effect after 8 hours on systolic blood pressure after 1 day of oral administration in renal hypertensive dogs at dose 0.5 mg/kg; type: functional, Canis lupus familiaris, Artery
Canis familiaris [26] = test: Peak effect after 8 hours on systolic blood pressure after 2 days of oral administration in renal hypertensive dogs at dose 0.5 mg/kg; type: functional, Canis lupus familiaris, Artery
Canis familiaris [27] = test: Peak effect after 8 hours on systolic blood pressure after 7 days of oral administration in renal hypertensive dogs at dose 0.5 mg/kg; type: functional, Canis lupus familiaris, Artery
Canis familiaris [28] = test: Peak effect after 8 hours systolic blood pressure after 3 days of oral administration in renal hypertensive dogs at dose 0.5 mg/kg; type: functional, Canis lupus familiaris, Artery
Canis familiaris [29] = test: Systolic blood pressure after 0 hours of oral administration in renal hypertensive dogs at dose 0.25 mg/kg; type: functional, Canis lupus familiaris
Canis familiaris [30] = test: Systolic blood pressure after 0 hours of oral administration in renal hypertensive dogs at dose 1 mg/kg; type: functional, Canis lupus familiaris
Canis familiaris [31] = test: Systolic blood pressure after 0 hours of oral administration in renal hypertensive dogs at dose 2 mg/kg; type: functional, Canis lupus familiaris
Canis familiaris [32] = test: Systolic blood pressure after 2 hours of oral administration in renal hypertensive dogs at dose 0.25 mg/kg; type: functional, Canis lupus familiaris
Canis familiaris [33] = test: Systolic blood pressure after 2 hours of oral administration in renal hypertensive dogs at dose 1 mg/kg; type: functional, Canis lupus familiaris
Canis familiaris [34] = test: Systolic blood pressure after 2 hr of oral administration in renal hypertensive dogs at dose 2 mg/kg; type: functional, Canis lupus familiaris
Canis familiaris [35] = test: Systolic blood pressure after 4 hours of oral administration in renal hypertensive dogs at dose 0.25 mg/kg; type: functional, Canis lupus familiaris
Canis familiaris [36] = test: Systolic blood pressure after 4 hours of oral administration in renal hypertensive dogs at dose 1 mg/kg (mean +/- SE for 3 animals /dose); type: functional, Canis lupus familiaris
Canis familiaris [37] = test: Systolic blood pressure after 4 hours of oral administration in renal hypertensive dogs at dose 2 mg/kg; type: functional, Canis lupus familiaris
Rattus norvegicus = test: Antihypertensive activity on spontaneously hypertensive rats when administered orally at a dose 50 mg/kg.; type: functional; settings: route oral
Canis familiaris [38] = test: Heart rate after 8 hours of oral administration in renal hypertensive dogs at dose 1 mg/kg; type: functional, Canis lupus familiaris
Canis familiaris [39] = test: Systolic blood pressure after 6 hours of oral administration in renal hypertensive dogs at dose 0.25 mg/kg; type: functional, Canis lupus familiaris

## Cl.Fc1ccc(-c2nn(Cc3ccccc3)c3c2CNCC3)cc1
[1]
  Ki: 14.7 nM
Canis familiaris [2]
  Heart rate: 96 beats min-1
Canis familiaris [3]
  Heart rate: 97 beats min-1
Canis familiaris [4]
  Heart rate: 109 beats min-1
Canis familiaris [5]
  Heart rate: 90 beats min-1
Canis familiaris [6]
  Heart rate: 100 beats min-1
Canis familiaris [7]
  Heart rate: 95 beats min-1
Canis familiaris [8]
  Heart rate: 105 beats min-1
Canis familiaris [9]
  Heart rate: 95 beats min-1
Canis familiaris [10]
  Heart rate: 110 beats min-1
Canis familiaris [11]
  Heart rate: 112 beats min-1
Canis familiaris [12]
  Heart rate: 110 beats min-1
Canis familiaris [13]
  Heart rate: 107 beats min-1
Canis familiaris [14]
  SBP: 165 mmHg
Canis familiaris [15]
  SBP: 155 mmHg
Canis familiaris [16]
  SBP: 190 mmHg
Canis familiaris [17]
  SBP: 165 mmHg
Canis familiaris [18]
  SBP: 156 mmHg
Canis familiaris [19]
  Heart rate: 105 beats min-1
Canis familiaris [20]
  Heart rate: 109 beats min-1
Canis familiaris [21]
  Heart rate: 107 beats min-1
Canis familiaris [22]
  Heart rate: 108 beats min-1
Canis familiaris [23]
  Heart rate: 105 beats min-1
Canis familiaris [24]
  Heart rate: 104 beats min-1
Canis familiaris [25]
  SBP: 160 mmHg
Canis familiaris [26]
  SBP: 155 mmHg
Canis familiaris [27]
  SBP: 155 mmHg
Canis familiaris [28]
  SBP: 160 mmHg
Canis familiaris [29]
  SBP: 200 mmHg
Canis familiaris [30]
  SBP: 200 mmHg
Canis familiaris [31]
  SBP: 203 mmHg
Canis familiaris [32]
  SBP: 202 mmHg
Canis familiaris [33]
  SBP: 198 mmHg
Canis familiaris [34]
  SBP: 183 mmHg
Canis familiaris [35]
  SBP: 200 mmHg
Canis familiaris [36]
  SBP: 172 mmHg
Canis familiaris [37]
  SBP: 165 mmHg
Rattus norvegicus
  Delta p: -31%
Canis familiaris [38]
  Heart rate: 93 beats min-1
Canis familiaris [39]
  SBP: 188 mmHg
